{"source": "patent US20080089947A1", "about": "“Calcium Influx Inhibitors in the Treatment of Ischemia” (priority 2006, published 2008)", "key": {"[1]": {"test_system": "hepG2 cells", "details": "100 μM in UW prior to cold storage, 6 hour ischemic", "method": "To investigate the cellular mechanisms of 2-APB, an in vitro model using hepG2 cells transfected with GFP-tagged cytochrome c was used. […] Cells were grown at 37° C., 5% CO2 in MEM (ATCC, Manassas, Va.), with 10% fetal bovine serum, and 1% penicillin/streptomycin to 80% confluence. The media was replaced with UW solution and cells were incubated at 4° C. in hypoxic conditions for 6 hours. Hypoxia was achieved by placing the cells in an airtight incubator (Form a Scientifica, Marietta, Ohio), which was flushed with 5% CO2 and 95% N2 until the oxygen content in the container reached <0.1%, as verified using a dissolved O2 meter (Model 4000, VWR Scientific Products, Suwannee, Ga.). To render the storage solution hypoxic before experiments were carried out, UW was preincubated in the hypoxic chamber in an open sterile container for 8 h before experiments were carried out. […] Following 6 hours of hypothermic storage, the UW was replaced with warm, oxygenated media, and the cells were incubated at 37° C. Cytoplasmic extracts were harvested in lysis buffer (10 mM of KCl, 10 mM of HEPES, 1 mM of NaEDTA, 200 mM of Mannitol, 50 mM of sucrose) immediately following storage and after 60, 120, and 180 min of rewarming. HepG2 cytoplasmic extracts were harvested before exposure to storage conditions to serve as a control (untreated control). […]"}, "[2]": {"test_system": "liver ischemia/reperfusion injury", "protocol": "2-APB (2 mg/kg in DMSO), or vehicle (DMSO) was injected into the portal vein following 1 hour of ischemia, concurrent with removal of the vascular clamp. Animals were sacrificed after 3 hours of reperfusion (n=6 per group). Serum AST, ALT, and LDH levels were measured, and liver samples were evaluated histologically using H&E and TUNEL staining. To investigate the effect of 2-APB at the cellular level, an I/R model in HepG2 cells transfected with GFP-tagged cytochrome c was used. Statistical significance was assessed using Student t-test."}, "[3]": {"test_system": "liver ischemia/reperfusion injury", "remark": "listed apart in the source", "method": "Methods: Following overnight fast, male Sprague-Dawley rats were placed under general anesthesia with isoflurane gas (3%, 2 L O2). Via a midline incision, a laparotomy was performed and the portal vein, hepatic artery, and bile duct were identified and dissected free from surrounding structures. […] Approximately 70% liver ischemia was created by using an atraumatic vessel clamp (S&T Microclamp B-3, Fine Science Tools, Foster City, Calif.) to occlude the portal vein and hepatic artery branches to the median and left liver lobes. […] The clamp was removed after 1 hour and the livers were given three hours to reperfuse with blood while the animals were conscious. Liver injury was assessed by serum levels of AST, ALT, LDH, which are three standard serum markers of acute ischemia/reperfusion injury to the liver. Histologic liver analysis using H&E staining and TUNEL assay, which identifies terminally damaged (apoptotic) cells, were used to look directly at cell damage in the collected livers.\nSerum Transaminase Determinations: Serum collected from each animal at the time of euthanasia was analyzed for aspartate aminotransferase (AST), alanine aminotransferase (ALT), and lactic acid dehydrogenase (LDH) concentrations.\nAssessment of apoptosis: In order to quantitate the rate of apoptosis in a sensitive manner, the inventors performed terminal deoxynucleotidyl transferase-mediated deoxyuridine triphosphate nick-end labeling (TUNEL) on paraffin embedded tissue sections from each animal. This assay was performed following the manufacturer's recommendations for a commercially available kit (ApopTag Plus Fluorescein In Situ Apoptosis Detection Kit, Chemicon International, Inc., Temecula, Calif.). Five randomly selected fields from each tissue section were examined at an original magnification of 200×. The number of positively staining cells per field was recorded. The average number of positively staining nuclei per field for each animal was used for analysis.\nQuantitation of liver necrosis: Paraffin embedded tissue sections were stained with hematoxylin and eosin (H&E) and examined at an original magnification of 200×. Digital photomicrographs were made from five randomly selected fields of each tissue section. […] ImagePro software was used to create specific overlays of any region of necrosis in each of the photomicrographs. Using these overlays, percent area necrosis was calculated for each photomicrograph. The average percent area necrosis for each animal was then used for analysis."}, "[4]": {"test_system": "liver transplantation", "details": "donor livers cold stored 24 hours in UW containing 2-APB", "protocol": "In further experiments, full scale liver transplants were performed in rats. Livers were harvested from male Sprague-Dawly rats and cold stored for 24 hours in UW solution, or UW containing 2-APB. The livers were then removed from cold storage and transplanted into recipient rats. The operations were performed under general anesthesia, and the animals were followed after surgery for 2 days."}, "[5]": {"test_system": "mitochondrial calcium uptake (mitochondrial calcium uniporter)", "experiment": "45Ca2+ uptake in isolated liver mitochondria", "type": "biochemical, rat", "details": "for EC50: isolated mitochondria, pyruvate and malate, read-out: EC50 of inhibition of mitochondrial calcium uptake", "protocol": "Livers were isolated from male Sprague-Dawley rats (300 g). Rats were anesthetized with isoflurane and sacrificed by cervical dislocation. […] Briefly, the liver was minced and homogenized in liver homogenization buffer (LHB)(0.2 M mannitol, 50 mM sucrose, 10 mM KCl, and 1 mM Na2EDTA, pH=7.4, KOH). The homogenate was filtered through gauze and centrifuged 2 times for 10 min at 1,000× g. The supernatant was collected and centrifuged for 10 min at 3,000× g. The pellet was washed twice and resuspended in calcium-free LHB without EDTA to a concentration of 2 mg/mL. All steps were performed at 4° C.\nA combination of metabolic substrates pyruvic acid and malic acid (final concentration 1 mM each) was used as a source of mitochondrial energy. Radioactive ^45Ca^2+ (NEN Life Sciences Products, Inc., Boston, Mass.) was added to the incubation buffer (final concentration range: 0.1-2.0 μM). The experiments were initiated by addition of mitochondria to the incubation buffer (final concentration 0.2 mg/ml). 2-APB (in DMSO) was added at concentrations from 0-100 μM to determine its effects on mitochondrial calcium uptake. Mitochondria were incubated in a 37° C. shaking water bath for 30 minutes, filtered, and washed. Accumulated mitochondrial ^45Ca^2+ was then measured using liquid scintillation counting in a Beckman LS6000IC beta counter. Mitochondria in incubation buffer without pyruvic acid and malic acid served as background controls. Ruthenium red (10 μM), a uniporter antagonist, was tested in all conditions to determine inhibitory capacity on observed mitochondrial calcium uptake, and to ensure that all observed calcium uptake was through the uniporter.\nA combination of metabolic substrates pyruvic acid and malic acid was used as a source of mitochondrial energy. Radioactive ^45Ca^2+ was added to the incubation buffer (final concentration range: 0.1-2.0 μM). […] The calcium uptake experiments were initiated by addition of mitochondria to the incubation buffer (final concentration 0.2 mg/ml). Mitochondria were incubated in a 37° C. shaking water bath for 30 minutes, filtered, and washed, and calcium uptake quantified. Mitochondria in incubation buffer without pyruvic acid and malic acid served as background controls."}, "[6]": {"details": "cited from earlier work"}, "[7]": {"test_system": "mitochondrial calcium uptake", "experiment": "45Ca2+ uptake with ATP in mitochondria from non-ischemic and 24 h cold-stored livers", "type": "biochemical, rat", "protocol": "Methods: Rat livers were perfused and stored using a previously reported technique (Belous et al., 2003). Briefly, an abdominal incision was made and the portal vein was cannulated with a 20-gauge cannula. The liver was then perfused with 30 ml 4° C. University of Wisconsin solution (UW). Half of the liver was processed for calcium uptake experiments immediately, while the other half was first stored for 24 hours in 4° C. UW solution (ischemic cold storage). Mitochondria were isolated from the liver as described in Example 1. Mitochondrial calcium uptake experiments were performed on isolated mitochondria from both the ischemic and non-ischemic portions of the liver as described in Example 1. In order to simulate the cellular conditions present during ischemia/reperfusion, 1 mM ATP was added to the incubation buffer. The selective, membrane-permeable PLC inhibitor, U-73122, was added to mitochondrial calcium uptake reaction tubes to a final concentration of 5 μM. This compound was tested on mitochondria isolated from both ischemic and non-ischemic livers to determine the effect of PLC inhibition on mitochondrial calcium uptake following ischemia/reperfusion. […] Ruthenium red (10 μM) was used to block the uniporter and ensure that all observed calcium uptake was ruthenium red-sensitive, and thus entering solely through the uniporter. To simulate reperfusion, mitochondria were incubated for 30 minutes in a 37° C. water bath with ATP present, after which the total mitochondrial calcium uptake was quantified as described in Example 1."}, "[8]": {"test_system": "PLC", "details": "read-out: EC50 reported for PLC inhibition in intact cells; cited from earlier work"}, "[9]": {"test_system": "liver ischemia/reperfusion injury", "experiment": "70% liver ischemia/reperfusion, ruthenium red pretreatment", "type": "in vivo, rat", "protocol": "Thirty minutes prior to the initiation of liver ischemia, animals received ruthenium red (30 mg/kg in NaCl) or vehicle (0.9% NaCl) IV. Ischemia was carried out for one hour. The total anesthesia time for the animals was 90 minutes. Sham operated animals received laparotomy, mobilization of the liver, and underwent equivalent anesthesia. Following vascular clamp removal, animals were allowed to reperfuse for periods of 15 minutes, 1 hr, 3 hr, or 6 hr. At the time of animal sacrifice, serum was collected, and liver tissue was preserved for histological analysis. A total of 40 animals were used for this experiment. Ten animals were used for each time point: 4 ischemia/reperfusion, 4r ischemia/reperfusion with ruthenium red pretreatment, and 2 sham operated animals. […] All experimental measurements and data were obtained as detailed in Example 2."}, "[10]": {"details": "0.5-7.5 μM, 0.2 μM 45Ca2+, baseline 0.14% DMSO"}, "[11]": {"details": "30 mg/kg, 30 min before 1 h ischemia, 6 hours of reperfusion"}}, "note": "Entries after “also recorded” stand apart in the source; their conditions may differ.", "data": [{"compound": "NCCOB(c1ccccc1)c1ccccc1", "note": "[2-APB, 2-aminoethoxydiphenyl borate]", "values": [{"measurement": "release of GFP-tagged cytochrome c into the cytoplasm", "setting": "[1]", "value": "prevented this release"}, {"measurement": "elevation of serum AST, ALT and LDH", "setting": "[2]; 2 mg/kg in DMSO, portal vein at onset of reperfusion, 3 h reperfusion", "value": "significantly inhibited"}, {"measurement": "liver necrosis, H&E histology", "setting": "[2]; 2-APB administered during reperfusion", "value": "little evidence of liver necrosis"}, {"measurement": "liver damage by serum AST, ALT, LDH in sham-operated animals", "setting": "[3]; 2 mg/kg in DMSO, portal vein, after sham operation", "value": "neither 2-APB nor the vehicle, DMSO, were damaging to the liver"}, {"measurement": "rise in serum AST, ALT and LDH", "setting": "[3]; 2 mg/kg in DMSO, portal vein, before 1 h ischemia, 3 h reperfusion", "value": "eliminated the rise in AST, ALT and LDH"}, {"measurement": "liver histology 400×", "setting": "[3]; 2 mg/kg portal vein before 1 h ischemia, 3 h reperfusion", "value": "Cells are healthy and appear identical to the normal liver cells"}, {"measurement": "cells undergoing cell death", "setting": "[3]; 2 mg/kg portal vein before 1 h ischemia, 3 h reperfusion, H&E and TUNEL", "value": "≤ 2", "unit": "%"}, {"measurement": "Mortality at 2 days", "setting": "[4]", "value": 0, "unit": "%"}, {"measurement": "EC50", "setting": "[5]; 30 min, 37° C.", "value": "2000 to 3000", "unit": "nM"}, {"measurement": "mitochondrial calcium influx", "setting": "[5]; range of 1-100 μM 2-APB", "value": "consistently and dose-dependently inhibited"}, {"measurement": "solubility in DMSO", "setting": "[6]", "value": 20, "unit": "mg/mL"}, {"measurement": "solubility in ethanol", "setting": "[6]", "value": 25, "unit": "mg/mL"}]}, {"compound": "COc1ccc2c(c1)CCC1C2CCC2(C)C(NCCCCCCN3C(=O)C=CC3=O)CCC12", "note": "(stereo not drawn) [U-73122, 1-[6-((17β-3-Methoxyestra-1,3,5(10)-trien-17-yl)amino)hexyl]-1H-pyrrole-2,5-dione]", "values": [{"measurement": "inhibition of mitochondrial calcium uptake", "setting": "[5]; 5 μM or greater U-73122", "value": "90-100%"}, {"measurement": "mitochondrial calcium uptake", "setting": "[5]; [10]", "value": "dose-dependently inhibited"}, {"measurement": "EC50", "setting": "[5]; 30 min, 37° C.", "value": "2000 to 3000", "unit": "nM"}, {"measurement": "decrease of mitochondrial calcium uptake", "setting": "[7]; 5 μM, mitochondria from ischemic livers (24 h 4° C. UW), vs. ATP and calcium alone", "value": "85±2", "unit": "%"}, {"measurement": "decrease of mitochondrial calcium influx", "setting": "[7]; 5 μM, mitochondria from non-ischemic livers, vs. ATP and calcium alone", "value": "54±5", "unit": "%"}, {"measurement": "solubility in DMSO", "setting": "[6]", "value": 1, "unit": "mg/mL"}, {"measurement": "solubility in ethanol", "setting": "[6]", "value": 0.5, "unit": "mg/mL"}, {"measurement": "EC50", "setting": "[8]", "value": "1000 to 2100", "unit": "nM"}]}, {"compound": "COc1ccc2c(c1)CC[C@@H]1[C@@H]2CC[C@]2(C)[C@@H](NCCCCCCN3C(=O)CCC3=O)CC[C@@H]12", "note": "[U-73343, 1-[6-((17β-3-Methoxyestra-1,3,5(10)-trien-17-yl)amino)hexyl]-2,5-pyrrolidinedione]", "values": [{"measurement": "mitochondrial calcium uptake", "setting": "[5]; [10]", "value": "no effect; also recorded: did not significantly affect"}, {"measurement": "mitochondrial calcium uptake", "setting": "[7]; 5 μM, mitochondria from ischemic livers (24 h 4° C. UW)", "value": "slight and insignificant decrease; also recorded: no effect"}, {"measurement": "mitochondrial calcium uptake", "setting": "[7]; 5 μM, mitochondria from non-ischemic livers", "value": "slight but significant increase; also recorded: did not"}]}, {"compound": "N.N.N.N.N.N.N.N.N.N.N.N.N.N.[Cl-].[Cl-].[Cl-].[Cl-].[Cl-].[Cl-].[O-2].[O-2].[Ru+3].[Ru+3].[Ru+4]", "note": "[ruthenium red]", "values": [{"measurement": "serum ALT", "setting": "[9]; [11]", "value": "294±39"}, {"measurement": "serum AST", "setting": "[9]; [11]", "value": "597±121"}, {"measurement": "liver necrosis", "setting": "[9]; 3 and 6 hours of reperfusion", "value": "significantly decreased"}, {"measurement": "AST and ALT levels", "setting": "[9]; 3 hours of reperfusion", "value": "trend for the animals pretreated with ruthenium red to have lower AST and ALT levels"}, {"measurement": "liver necrosis, percent area", "setting": "[9]; 3 hours of reperfusion", "value": "5%±2%"}, {"measurement": "reduction in ALT levels", "setting": "[9]; 6 hour reperfusion time point", "value": 4, "unit": "fold"}, {"measurement": "reduction in AST levels", "setting": "[9]; 6 hour reperfusion time point", "value": 2.5, "unit": "fold"}, {"measurement": "liver necrosis, percent area", "setting": "[9]; 6 hours of reperfusion", "value": "3%±1%"}, {"measurement": "rate of apoptosis (TUNEL)", "setting": "[9]; all reperfusion time points (15 min, 1, 3, 6 hr)", "value": "significantly decreased"}, {"measurement": "AST or ALT levels in sham operated animals", "setting": "[9]; pretreatment of sham operated animals vs. vehicle alone", "value": "did not alter"}, {"measurement": "mitochondrial calcium uptake", "setting": "[5]; 10 μM ruthenium red, 30 min, 37° C.", "value": "completely blocked"}, {"measurement": "mitochondrial calcium uptake", "setting": "[7]; 10 μM ruthenium red, mitochondria from both ischemic and non-ischemic livers", "value": "prevented calcium uptake"}, {"measurement": "mitochondrial calcium uptake", "setting": "[7]; 10 μM ruthenium red, mitochondria from both ischemic and non-ischemic livers, listed as Ruthenium red", "value": "completely blocked"}, {"measurement": "solubility in water", "setting": "[6]", "value": "soluble in water"}]}, {"compound": "Ru360", "values": [{"measurement": "solubility in water", "setting": "[6]", "value": "soluble in water"}]}]}
